Assay results published in patent US11033527B2, “Non-hormonal treatment of the genitourinary syndrome of menopause” (IMMUGEN PHARMA LLC, priority 2018, dated 2021).
Where “and” joins values, the source holds several entries; their conditions need not be identical. Identical values can stand only once.

What was measured:
[1] = molecular target: endocannabinoid receptor type 2 (CB2) (Homo sapiens, UniProt P34972); details: cited from earlier work
[2] = test system: vaginal tissue construct; assay: microarray analysis of differential gene expression (Affymetrix Human Gene 1.0 ST arrays), tissues treated for seven days via culture medium; type: cell-based
Source text: The data from the Affymetrix Human Gene 1.0 ST arrays were normalized using the Robust Multiarray Average (RMA) algorithm and a Chip Definition File (CDF) that maps the probes on the array to unique Entrez Gene identifiers. The result is a matrix in which each column corresponds to a sample. The expression values are log 2-transformed by default.
By using a fold change >1.5, an analysis of differentially expressed genes was done to identify those genes which were involved in the cornified envelope, keratinocyte differentiation, cell differentiation, epidermis development, epithelial cell differentiation, junctional proteins and signaling, immune response and innate immune response.

[3] = down-regulated by this fold, given without sign

Sequence of endocannabinoid receptor type 2 (CB2) (P34972 whole entry, species assumed): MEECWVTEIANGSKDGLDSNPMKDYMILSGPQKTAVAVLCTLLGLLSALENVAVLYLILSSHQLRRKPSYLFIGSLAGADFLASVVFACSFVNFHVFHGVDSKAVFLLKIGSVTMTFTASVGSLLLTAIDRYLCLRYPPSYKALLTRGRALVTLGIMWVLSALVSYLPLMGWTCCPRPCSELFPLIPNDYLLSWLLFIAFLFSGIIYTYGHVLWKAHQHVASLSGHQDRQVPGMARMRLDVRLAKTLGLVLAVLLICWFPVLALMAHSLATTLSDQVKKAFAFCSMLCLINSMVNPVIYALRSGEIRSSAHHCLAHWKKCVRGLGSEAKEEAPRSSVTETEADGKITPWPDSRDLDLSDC

CCCC(C)(C)c1ccc2c(c1)OC(C)(C)[C@@H]1CC=C(C)C[C@@H]21 [JWH-133]
agonist type by receptor internalization [1]: full agonist | SPRR2D Fold Change [2]: 2.839 fold | WFDC12 Fold Change [2]: 5.534 fold | CFB down-regulation [2, 3]: 2.167 fold | CFH down-regulation [2, 3]: 1.681 fold | AGR2 Fold Change ([2]; gene Anterior gradient homolog 2 (Xenopus laevis)): −2.5 fold | CXCL8 Expr Fold Change ([2]; gene C-X-C motif chemokine ligand 8): −2.155 fold | CXCL17 Expr Fold Change ([2]; gene C-X-C motif chemokine ligand 17): −1.881 fold | CXCR2 Expr Fold Change ([2]; gene C-X-C motif chemokine receptor 2): 2.121 fold | CD14 Expr Fold Change ([2]; gene CD14 molecule): −2.286 fold | CD74 Expr Fold Change ([2]; gene CD74 molecule): −1.676 fold | CD151 Expr Fold Change ([2]; gene CD151 molecule (Raph blood group)): −1.653 fold | CD244 Expr Fold Change ([2]; gene CD244 molecule): 2.489 fold | CDSN Fold Change ([2]; gene Corneodesmosin): 6.888 fold | CCL28 Expr Fold Change ([2]; gene C−C motif chemokine ligand 28): −2.39 fold | FYB1 Expr Fold Change ([2]; gene FYN binding protein 1): −2.398 fold | IFNE Fold Change ([2]; gene Interferon Epsilon): 4.439 fold | IL19 Fold Change ([2]; gene Interleukin 19): −2.2 fold | NLRP10 Fold Change ([2]; gene NLR family pyrin domain containing 10): 10.11 fold | RNAse7 Fold Change ([2]; gene RNAse family): 6.145 fold | TIAM1 Expr Fold Change ([2]; gene T cell lymphoma invasion and metastasis 1): 2.018 fold | TNFAIP8 Expr Fold Change ([2]; gene TNF alpha induced protein 8): −1.724 fold | TNFRSF10C Expr Fold Change ([2]; gene TNF receptor superfamily member 10c): −2.114 fold | TNFRSF11B Expr Fold Change ([2]; gene TNF receptor superfamily member 11b): −2.006 fold | TSPAN1 Fold Change ([2]; gene Tetraspanin 1): −1.9 fold | TGM1 Fold Change ([2]; gene Transglutaminase 1): 1.809 fold | TGM3 Fold Change ([2]; gene Transglutaminase 3): 23.784 fold and 24 fold | TGM5 Fold Change ([2]; gene Transglutaminase 5): 2.346 fold | TRIM31 Fold Change ([2]; gene Tripartite motif-containing 31): −4.5 fold | VTCN1 Expr Fold Change ([2]; gene V-set domain containing T cell activation inhibitor 1): −2.694 fold | WFDC2 Fold Change ([2]; gene WAP four-disulfide core domain 2): −2.6 fold | WFDC5 Fold Change ([2]; gene WAP four-disulfide core domain 5): 2.807 fold | ALOX12B Fold Change ([2]; gene arachidonate 12-lipoxygenase, 12R type): 6.023 fold | ALOX12 Fold Change ([2]; gene arachidonate 12-lipoygenase): 1.8 fold | ALOXE3 Fold Change ([2]; gene arachidonate lipoxygenase 3): 2.881 fold | ASS1 Fold Change ([2]; gene arginosuccinate synthetase 1): −2.4 fold | CLDN17 Fold Change ([2]; gene claudin 17): 8.7 fold | CCDC59 Expr Fold Change ([2]; gene coiled-coil domain containing 59): −1.956 fold | CSF2RB Expr Fold Change ([2]; gene colony stimulating factor 2 receptor beta common subunit): 2.595 fold | CFH Expr Fold Change ([2]; gene complement factor H): −1.681 fold | CNFN Fold Change ([2]; gene cornifelin): 1.706 fold | CRCT1 Fold Change ([2]; gene cysteine-rich C-terminal 1): 2.3 fold | DMKN Fold Change ([2]; gene dermokine): 2.043 fold | DCS3 Fold Change ([2]; gene descmocollin 3): 1.5 fold | DSC1 Fold Change ([2]; gene desmocollin 1): 6.69 fold | DSC2 Fold Change ([2]; gene desmocollin 2): 1.6 fold | DSG1 Fold Change ([2]; gene desmoglein 1): 7.572 fold and 7.2 fold | FLG Fold Change ([2]; gene filaggrin): 3.151 fold | FLG2 Fold Change ([2]; gene filaggrin family member 2): 6.801 fold | GYS2 Fold Change ([2]; gene glycogen synthase 2 (liver)): 3.1 fold | KPRP Fold Change ([2]; gene human keratinocyte proline rich protein): 17.392 fold and 20.8 fold | IFIT5 Expr Fold Change ([2]; gene interferon induced protein with tetratricopeptide repeats 5): −1.97 fold | IFIH1 Expr Fold Change ([2]; gene interferon induced with helicase C domain 1): −2.099 fold | IRF1 Expr Fold Change ([2]; gene interferon regulatory factor 1): −3.083 fold | IRF9 Expr Fold Change ([2]; gene interferon regulatory factor 9): −1.62 fold | IL1RL2 Expr Fold Change ([2]; gene interleukin 1 receptor like 2): 2.54 fold | IL7R Expr Fold Change ([2]; gene interleukin 7 receptor): −2.062 fold | IL18BP Expr Fold Change ([2]; gene interleukin 18 binding protein): 1.523 fold | IL23A Expr Fold Change ([2]; gene interleukin 23 subunit alpha): 2.346 fold | IL33 Expr Fold Change ([2]; gene interleukin 33): −3.314 fold | IL36A Expr Fold Change ([2]; gene interleukin 36 alpha): 4.253 fold | IL36RN Expr Fold Change ([2]; gene interleukin 36 receptor antagonist): 4.029 fold | KLK6 Fold Change ([2]; gene kallikrein related peptidase 6): 4.063 fold | KLK8 Fold Change ([2]; gene kallikrein related peptidase 8): 1.504 fold | KLK10 Fold Change ([2]; gene kallikrein related peptidase 10): 2.214 fold | KLK12 Fold Change ([2]; gene kallikrein related peptidase 12): 3.882 fold | KLK13 Fold Change ([2]; gene kallikrein related peptidase 13): 3.278 fold | KRT1 Fold Change ([2]; gene keratin 1): 7.122 fold and 8.7 fold | KRT2 Fold Change ([2]; gene keratin 2): 1.764 fold | KRT20 Fold Change ([2]; gene keratin 20): −2.992 fold | KRT23 Fold Change ([2]; gene keratin 23): 1.631 fold | KRT24 Fold Change ([2]; gene keratin 24): 1.699 fold | KRTDAP Fold Change ([2]; gene keratinocyte differentiation associated protein): 9.891 fold and 10.1 fold | LCE1A Fold Change ([2]; gene late cornified envelope 1A): 1.526 fold | LCE1C Fold Change ([2]; gene late cornified envelope 1C): 2.292 fold | LCE1F Fold Change ([2]; gene late cornified envelope 1F): 1.576 fold | LCE2A Fold Change ([2]; gene late cornified envelope 2A): 4.097 fold | LCE2B Fold Change ([2]; gene late cornified envelope 2B): 7.398 fold | LCE2C/LCE2D Fold Change ([2]; gene late cornified envelope 2D): 10.393 fold | LCE3D Fold Change ([2]; gene late cornified envelope 3D): 12.6 fold | LCE3E Fold Change ([2]; gene late cornified envelope 3E): 13.5 fold | LCE5A Fold Change ([2]; gene late cornified envelope 5A): 1.571 fold | LIPM Fold Change ([2]; gene lipase family member M): 6.813 fold | LIPN Fold Change ([2]; gene lipase family member N): 4.766 fold | LIPN1 Fold Change ([2]; gene lipin 1): 3.23 fold | LOR Fold Change ([2]; gene loricrin): 5.085 fold | LY6G6C Expr Fold Change ([2]; gene lymphocyte antigen 6 family member G6C): 5.531 fold | HLA-C Expr Fold Change ([2]; gene major histocompatibility complex, class C): −1.5 fold | HLA-B Expr Fold Change ([2]; gene major histocompatibility complex, class I, B): −1.677 fold | HLA-DRA Expr Fold Change ([2]; gene major histocompatibility complex, class II, DR alpha): −1.875 fold | HLA-DRB6 Expr Fold Change ([2]; gene major histocompatibility complex, class II, DR beta 6 (pseudogene)): −1.5 fold | ME1 Fold Change ([2]; gene malic enzyme 1, NADP(+)-dependent cytosolic): 2.4 fold | MUCL1 Fold Change ([2]; gene mucin like 1): 1.4 fold | NCR3LG1 Expr Fold Change ([2]; gene natural killer cell cytotoxicity receptor 3 ligand 1): 2.076 fold | NFAT5 Expr Fold Change ([2]; gene nuclear factor of activated T cells 5): 1.924 fold | OLFM4 Expr Fold Change ([2]; gene olfactomedin 4): −3.505 fold | PNLIPRP3 Fold Change ([2]; gene pancreatic lipase-related protein 3): 1.4 fold | PLA2G2F Fold Change ([2]; gene phospholipase A2 group IIF): 1.564 fold | PLA2G3 Fold Change ([2]; gene phospholipase A2 group III): 1.953 fold | PLA2G4D Fold Change ([2]; gene phospholipase A2 group IVD): 3.604 fold | PLA2G4E Fold Change ([2]; gene phospholipase A2 group IVE): 2.225 fold | PLA2G10 Fold Change ([2]; gene phospholipase A2 group X): −2.819 fold | PLAC8 Fold Change ([2]; gene placenta-specific 8): −2.2 fold | PIGR Fold Change ([2]; gene polymeric immunoglobulin receptor): −1.8 fold | PDCD1LG2 Expr Fold Change ([2]; gene programmed cell death 1 ligand 2): −1.879 fold | RPS15A Expr Fold Change ([2]; gene ribosomal protein S15a): −1.999 fold | SERPINB12 Fold Change ([2]; gene serpin family B member 12): 4.409 fold and 4.3 fold | STAT4 Expr Fold Change ([2]; gene signal transducer and activator of transcription 4): −2.315 fold | SPRR2G Fold Change ([2]; gene small proline rich protein 2G): 7.539 fold | SPRR4 Fold Change ([2]; gene small proline rich protein 4): 2.263 fold | SBSN Fold Change ([2]; gene suprabasin): 3.488 fold and 3.4 fold | TLR3 Expr Fold Change ([2]; gene toll like receptor 3): −2.566 fold | TRPV3 Fold Change ([2]; gene transient receptor potential cation channel subfamily V member 3): 2.32 fold and 2.382 fold | UBA7 Expr Fold Change ([2]; gene ubiquitin like modifier activating enzyme 7): −1.651 fold | VEGFA Fold Change ([2]; gene vascular endothelial growth factor A): 1.2 fold | mir-23 Expr Fold Change ([2]; microRNA 23a): 2.983 fold | mir-224 Expr Fold Change ([2]; microRNA 224): 4.867 fold
